Data reported in patent US9078441B2, “Antimicrobial flush solutions” (Board of Regents, The University of Texas System, priority 2003, dated 2015).

Tests used:
[1] = system: methicillin-resistant Staphylococcus aureus (MRSA); experiment: Modified Robbins device (MRD) in vitro colonization model, MRSA in biofilm on silicone catheter segments; format: cell-based; details: for 24 h growth after 15 min in drug mean CFU MRSA / suppression / eradication / regrowth of MRSA embedded in biofilm, in words: 15 min exposure; for 24 h growth after 15 min in drug mean CFU MRSA: then re-incubation in broth for 24 h at 37° C.; for suppression / eradication / regrowth of MRSA embedded in biofilm, in words: with or without 24 h re-incubation in broth; for 15 minutes in Drug mean CFU MRSA: catheter segments cultured by scrape sonication immediately after 15 min exposure at 37° C., confluent growth counted as 500
Description: (§1) The in vitro model utilized a modified Robbins device (MRD) to study the colonization of catheter segments with organisms embedded in biofilm. The modified Robbins device has been previously described (Nickel et al., 1991; Evans et al., 1987, see also U.S. Pat. No. 5,362,754) and is constructed from an acrylic block, 42 cm long with a lumen of 2×10 mm. It consists of 25 evenly spaced specimen plugs, each connected to a silicone catheter segment (Allegiance Healthcare Corp., McGaw Park, Ill.) whose anterior surface (0.3 cm^2) comes in conta-ct with the flushed infusate. After placing the catheter segments in the specimen plug of the modified Robbins device, the entire apparatus was gas sterilized using ethylene oxide. A 500 ml 5% dextrose in water (5% D5/W) was connected to the modified Robbins device through an intravenous tubing administration set and was subsequently infected with an innoculum of 10^8 CFU/ml of methicillin-resistant Staphylococcus aureus (MRSA), to produce an infected infusate at the concentration of 2×10^5 CFU/ml. The biofilm-producing S. aureus isolates were obtained from patients with CRBSI. In another series of experiments, 500 ml 5% D5/W bag was infected with a biofilm-producing C. parapsilosis using an inoculum of 10^5 CFU/ml to produce an infected infusate at a concentration of 2×10^2 CFU/ml of C. parapsilosis. The whole system was incubated at 37° C. and the infected infusate was flushed through the MRD using a peristaltic pump permitting the infusate to flow at the rate of 60 ml/hour for 8 hours. The modified Robbins device was left to incubate for a total of 18 hours (another 10 hours). Subsequently, the infected bag was removed and a 250 ml saline sterile bag which was infused through the MRD at 125 ml/hour for 2 hours in order to remove all free floating organisms. To insure biofilm formation, at least three catheter segments were randomly removed from the 25 evenly spaced catheter segments in the MRD and studied by scanning electron microscopy. This was repeated for every organism tested.
(§2) The remaining catheter segments were removed and each segment was placed in a tube containing 2 ml of one of the following broth solutions: (1) Mueller-Hinton broth (Becton Dickinson & Co., Cockeysville, Md.); (2) EDTA at a concentration of 30 mg/ml in broth (Abbott Laboratories, North Chicago, Ill.); (3) minocycline at 3 mg/ml in broth (Wyeth-Ayerst Laboratories, Collegeville, Pa.); (4) minocycline (3 mg/ml) and EDTA combination (M-EDTA) in broth; (5) 25% ethanol (ETOH) solution in broth; (6) minocycline at 3 mg/ml in 25% ethanol solution in broth; (7) EDTA 30 mg/ml in 25% ethanol solution in broth; and (8) M-EDTA in 25% ethanol solution in broth. The experiments were repeated in triplicate or quadruplicate, and during each experiment, 2-5 catheter segments were exposed to the same solution for only 15 minutes at 37° C. Subsequently, some of the catheter segments were immediately removed and cultured by scrape sonication. Other alternating catheter segments were removed, placed in broth (TSB), incubated for 24 hours, and then cultured by scrape sonication. This added step of re-incubating catheter segments in broth after the 15 minutes exposure was done to determine whether these agents suppressed the growth of organisms embedded in biofilm or eradicated them. The surface of the catheter segment that was exposed to the infected infusate was scraped with a sterile wooden applicator stick and placed, along with the stick, in a tube containing 0.5 ml of trypticase soy broth. The tubes were sonicated for five minutes; 0.1 ml of the sonicated broth solution in the tube was pipetted and plated over a blood agar plate, which was incubated at 37° for 24 hours. The agar plates were checked for any contaminants. The isolated organisms had to be of the same species and colonial morphology as the original organism used to infect the infusate.

C. parapsilosis = experiment: Modified Robbins device (MRD) in vitro colonization model, Candida parapsilosis in biofilm on silicone catheter segments; format: cell-based; details: for 24 h Growth after 15 Minutes in Drug Mean CFU C. Parapsilosis / suppression / eradication / regrowth of C. parapsilosis embedded in biofilm, in words: 15 min exposure; for 24 h Growth after 15 Minutes in Drug Mean CFU C. Parapsilosis: then re-incubation in broth for 24 h; for suppression / eradication / regrowth of C. parapsilosis embedded in biofilm, in words: with or without 24 h re-incubation in broth; for 15 Minutes in Drug Mean CFU C. Parapsilosis: cultured immediately after 15 min exposure at 37° C.
Description: as §1, §2

Candida parapsilosis = experiment: Silicone disk bioprosthetic colonization Candida parapsilosis model; format: cell-based; details: for suppression / eradication of Candida parapsilosis growth on silicone disks, in words / 1 hour in Drug Mean CFU C. Parapsilosis: 1 hour exposure; for 1 hour in Drug Mean CFU C. Parapsilosis / 24 h Growth after 1 hour in Drug Mean CFU C. Parapsilosis: silicone disks; for 24 h Growth after 1 hour in Drug Mean CFU C. Parapsilosis: exposure then 24 h reincubation in TSB
Experimental: (§3) On day 1, pieces of biofilm were prepared. Sterile (Ethylene Oxide Gas Sterilized) silicone disks were placed in 5 ml sterile snap top Falcon tubes and 0.5 ml of pooled plasma added. This was followed by incubation (while rocking) overnight at 37° C.
(§4) On day 2, the bacteria was added to form the biofilm. Using sterile plastic transfer pipettes, the plasma was suctioned out from the tubes and replaced with 0.5 ml of bacterial inoculum (50 ml of Mueller-Hinton broth containing 4-5 colonies of freshly grown bacteria). The tubes were incubated overnight at 37° C.
(§5) On day 3, a drug was added in an attempt to kill the bacteria. Before adding the drug, the pieces were washed in 0.5 ml of 0.9% saline in order to remove any planktonic bacteria. The tubes (containing the biofilm disks and saline) were placed in the incubator at 37° C. for 30 minutes. The saline was then pipetted out using sterile plastic transfer pipettes (taking care not to disturb the pieces too much). The silicone disks were then transferred to new 5 ml snap-top falcon tubes containing 0.5 ml of the drug solution to be tested. The drug solutions tested were as follows: (1) minocycline 3 mg/ml; (2) EDTA 30 mg/ml; (3) 25% ethanol solution; (4) EDTA 30 mg/ml in 25% ethanol; (5) minocycline 3 mg/ml in 25% ethanol; (6) minocycline 3 mg/ml with EDTA 30 mg/ml; and (7) triple combination of minocycline 3 mg/ml and EDTA 30 mg/ml in 25% ethanol solution. The disks were allowed to sit in the drug for 1 hour. The drug was then suctioned out using a plastic transfer pipette. The pieces were once again washed with 0.5 ml saline (added, and shaken for 30 seconds). The disks were then transferred to 15 ml snap-top falcon tubes containing 5 ml of 0.9% saline. The pieces were sonicated for 5 minutes, and then vortexed for 30 seconds. 100 microliters (μl) of the saline was then plated on a room temperature TSAII blood agar plate, and evenly spread using a sterile glass spreader. The plates were incubated overnight at 37° C.
(§6) For the 24 hour reincubation studies, pieces of biofilm were prepared the same exact way as the regular pieces. Before adding the drug, the pieces were washed in 0.5 ml of 0.9% saline in order to remove any planktonic bacteria. The tubes (now containing the biofilm disks and saline) were placed in the incubator at 37° C. for 30 minutes. The saline was then pipetted out using sterile plastic transfer pipettes (taking care not to disturb the pieces too much). The silicone disks were then transferred to new 5 ml snap-top falcon tubes containing 0.5 ml of the drug to be tested. […] The drug was then suctioned out using a plastic transfer pipette. The pieces were once again washed with 0.5 ml saline (added, and shaken for 30 seconds). The pieces were then transferred to new sterile 5 ml snap-top falcon tubes containing 0.5 ml of sterile trypticase soy broth (TSB) and then placed in the incubator at 37° C. overnight.
(§7) On day 4, colonies were counted and the results recorded. The colonies were hand counted, and counting was stopped at 100 colonies. Anything greater was considered >100 colonies. The counts were recorded, and multiplied by a factor of 50 because of the dilution factor between the 5 ml of saline containing the disk and the 100 μl that was plated onto the TSAII blood agar plates. The pieces were then sonicated (in the same TSB that grew overnight) for 5 minutes. 100 μl was then plated on TSAII blood agar plates, and the plates were placed in the incubator to grow overnight at 37° C.
(§8) On day 5, the regrowth pieces were counted. The colonies were hand counted, and counting was stopped at 100 colonies. Anything greater was considered >100 colonies. The counts were recorded, and multiplied by a factor of 5 because of the dilution factor between the 0.5 ml of TSB containing the disk and the 100 μl that was plated onto the TSAII blood agar plates.

MRSA = experiment: Silicone disk bioprosthetic colonization MRSA model; format: cell-based, Staphylococcus aureus; details: for suppression / eradication / regrowth of bioprosthetic MRSA colonization of silicone disks, in words / 1 hour in Drug Mean CFU ± std. error: 1 hour exposure; for suppression / eradication / regrowth of bioprosthetic MRSA colonization of silicone disks, in words: with or without 24 h incubation; for 1 hour in Drug Mean CFU ± std. error / 24 h Growth after 1 hour in Drug Mean CFU ± std. error: MRSA on silicone disks; for 1 hour in Drug Mean CFU ± std. error: up to 5,000 CFU/disk; for 24 h Growth after 1 hour in Drug Mean CFU ± std. error: exposure then 24 h reincubation in TSB
Experimental: as §3, §4, §5, §6, §7, §8

[2] = system: organisms that colonize the lumen of the catheter; details: dwell time of 4-24 hours; cited from earlier work

SMILES | 24 h growth after 15 min in drug mean CFU MRSA [1] | suppression / eradication / regrowth of MRSA embedded in biofilm, in words [1] | 15 minutes in Drug mean CFU MRSA [1] | 24 h Growth after 15 Minutes in Drug Mean CFU C. Parapsilosis (C. parapsilosis) | suppression / eradication / regrowth of C. parapsilosis embedded in biofilm, in words (C. parapsilosis) | 15 Minutes in Drug Mean CFU C. Parapsilosis (C. parapsilosis) | suppression / eradication of Candida parapsilosis growth on silicone disks, in words (Candida parapsilosis) | 1 hour in Drug Mean CFU C. Parapsilosis (Candida parapsilosis) | 24 h Growth after 1 hour in Drug Mean CFU C. Parapsilosis (Candida parapsilosis) | suppression / eradication / regrowth of bioprosthetic MRSA colonization of silicone disks, in words (MRSA) | 1 hour in Drug Mean CFU ± std. error (MRSA) | 24 h Growth after 1 hour in Drug Mean CFU ± std. error (MRSA) | eradication of microbial organisms embedded in biofilm from catheter surfaces, in words [2] | 24 h growth after 15 min in drug mean CFU MRSA ([1]; listed as 25% ethanol solution) | 15 minutes in Drug mean CFU MRSA ([1]; listed as 25% ethanol solution)
CN(C)c1ccc(O)c2c1C[C@H]1C[C@H]3[C@H](N(C)C)C(O)=C(C(N)=O)C(=O)[C@@]3(O)C(O)=C1C2=O [3 mg/ml minocycline, minocycline] | 308.3 ± 151.1 CFU | some decrease in colonization | 323.7 ± 199.0 CFU | 500.0 ± 0.0 CFU | failed to eradicate | 138.3 ± 111.8 CFU | failed to suppress or eradicate | 5000.0 ± 0.0 CFU | 5000.0 ± 0.0 CFU | failed to suppress | 5000.0 ± 0.0 CFU | 5000.0 ± 0.0 CFU | – | – | –
O=C(O)CN(CCN(CC(=O)O)CC(=O)O)CC(=O)O [30 mg/ml EDTA, ethylenediamine-N,N,N′,N′,-tetraacetic acid] | 500.0 ± 0.0 CFU | failed to eradicate | 479.6 ± 44.9 CFU | 500.0 ± 0.0 CFU | failed to eradicate | 160 ± 78.8 CFU | failed to suppress or eradicate | 5000.0 ± 0.0 CFU | 5000.0 ± 0.0 CFU | failed to suppress | 5000.0 ± 0.0 CFU | 5000.0 ± 0.0 CFU | – | – | –
CN[C@H](CC(C)C)C(=O)N[C@H]1C(=O)N[C@@H](CC(N)=O)C(=O)N[C@H]2C(=O)N[C@H]3C(=O)N[C@H](C(=O)N[C@H](C(=O)O)c4cc(O)cc(O)c4-c4cc3ccc4O)[C@H](O)c3ccc(c(Cl)c3)Oc3cc2cc(c3O[C@@H]2O[C@H](CO)[C@@H](O)[C@H](O)[C@H]2O[C@H]2C[C@](C)(N)[C@H](O)[C@H](C)O2)Oc2ccc(cc2Cl)[C@H]1O [vancomycin alone, vancomycin] | – | – | – | – | – | – | – | – | – | – | – | – | failed to eradicate | – | –
CCO [25% EtOH in MHB, ethanol] | 500.0 ± 0.0 CFU | – | 138.0 ± 193.8 CFU | 142.9 ± 225.9 CFU | regrowth was noted | 0 CFU | failed to completely suppress | 1933 ± 601.6 CFU | 3875.0 ± 618.3 CFU | failed to suppress | 2900.0 ± 722.8 CFU | 5000.0 ± 0.0 CFU | – | 500 CFU | 138 CFU
